Experimental data as given in patent US20240115711A1, “Novel Bifunctional Molecules For Targeted Protein Degradation” (Amphista Therapeutics Limited, priority 2020, published 2024).

Molecular target: T1, mutant EGFR (L858R) (Homo sapiens, UniProt P00533, L858R/T790M)
T1 construct: endogenous in cells; host or cells: NCI-H1975
Assay: Assay 8 - Degradation of mutant EGFR by immunoblot (NCI-H1975 cells)
Assay type: cell-based
Conditions: after 24 h treatment with 1000 nM
Description: 1.8 Assay 8—Degradation of Mutant EGFR by Immunoblot.
NCI-H1975 (1.5×10^5) cells were seeded in 12-well plates (1 mL medium) overnight prior to 24 h treatment with test compounds at the desired concentration (DMSO final concentration 0.1%). After 24 h incubation, cells were washed with PBS and lysed with RIPA buffer (Sigma) supplemented with 1× protease inhibitor cocktail (Roche) and 1 U/mL Benzonase (Merck). Lysates were clarified by centrifugation (17,000×g, 20 min, 4° C.) and the total protein content of the supernatant was quantified using a BCA assay. Samples were prepared using equal amounts of total protein and LDS sample buffer (Invitrogen). […] Blots were visualised using a Bio-Rad ChemiDoc MP Imaging System, and band quantification was performed using Image Studio software (LiCor). […] Degradation data was plotted and analysed using Prism (Graphpad, version 8).
The degradation of target protein mutant EGFR (L858R) was detected according to the procedure outlined in assay 8 for the compound A67.

T1 sequence (P00533 25-1210 T790M/L858R): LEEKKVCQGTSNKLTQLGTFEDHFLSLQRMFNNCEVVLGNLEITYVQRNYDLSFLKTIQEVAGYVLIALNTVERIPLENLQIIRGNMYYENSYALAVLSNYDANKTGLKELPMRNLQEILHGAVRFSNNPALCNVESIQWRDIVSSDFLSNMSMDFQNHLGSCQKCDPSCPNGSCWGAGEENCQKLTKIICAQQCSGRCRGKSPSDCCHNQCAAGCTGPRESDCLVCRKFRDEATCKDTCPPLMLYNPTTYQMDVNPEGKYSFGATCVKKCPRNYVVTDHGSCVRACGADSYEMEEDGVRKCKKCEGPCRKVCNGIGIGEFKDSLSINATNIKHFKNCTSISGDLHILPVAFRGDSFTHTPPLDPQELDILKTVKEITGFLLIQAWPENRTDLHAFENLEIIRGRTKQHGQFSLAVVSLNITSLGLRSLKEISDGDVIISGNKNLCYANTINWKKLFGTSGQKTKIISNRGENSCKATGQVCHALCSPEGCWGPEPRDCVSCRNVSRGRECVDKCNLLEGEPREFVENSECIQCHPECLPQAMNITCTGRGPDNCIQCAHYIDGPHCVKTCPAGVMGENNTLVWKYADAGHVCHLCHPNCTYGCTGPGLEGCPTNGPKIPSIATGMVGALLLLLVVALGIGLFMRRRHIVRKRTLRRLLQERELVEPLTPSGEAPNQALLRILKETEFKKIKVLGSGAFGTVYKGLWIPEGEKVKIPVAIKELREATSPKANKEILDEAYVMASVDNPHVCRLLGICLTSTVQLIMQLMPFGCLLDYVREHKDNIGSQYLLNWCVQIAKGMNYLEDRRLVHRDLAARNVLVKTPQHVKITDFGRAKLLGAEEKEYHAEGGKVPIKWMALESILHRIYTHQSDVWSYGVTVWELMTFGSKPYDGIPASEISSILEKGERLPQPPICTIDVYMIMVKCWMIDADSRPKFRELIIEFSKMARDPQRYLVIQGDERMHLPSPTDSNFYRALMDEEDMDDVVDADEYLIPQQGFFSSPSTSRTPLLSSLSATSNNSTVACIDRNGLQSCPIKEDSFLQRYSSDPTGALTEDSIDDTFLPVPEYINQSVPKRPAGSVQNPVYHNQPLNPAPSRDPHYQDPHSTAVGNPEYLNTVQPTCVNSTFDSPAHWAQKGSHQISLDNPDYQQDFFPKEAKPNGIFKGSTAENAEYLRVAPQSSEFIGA

residual EGFR (L858R) abundance: less than 50%
SMILES: CCCC(c1ccc(CCC(=O)NCCCN2CCN(CCCNC(=O)c3nn(C(C)C)c4cc(Nc5ccnc(N6CCC(OC)CC6)n5)ncc34)CC2)cc1)N(C)C(=O)/C(C#N)=C/c1nccs1 (stereo not shown) [Example A67, (E)-N-(3-(4-(3-(3-(4-(1-(2-cyano-N-methyl-3-(thiazol-2-yl)acrylamido)butyl)phenyl)propanamido)propyl)piperazin-1-yl)propyl)-1-isopropyl-6-((2-(4-methoxypiperidin-1-yl)pyrimidin-4-yl)amino)-1H-pyrazolo[4,3-c]pyridine-3-carboxamide]
